ChEMBL document CHEMBL3046917, “Antimicrobial evaluation of 4-methylsulfanyl benzylidene/3-hydroxy benzylidene hydrazides and QSAR studies” (2012)
Converted amounts (≈) assume the structure as drawn.

tested on: Aspergillus niger; assay: Ratio of MFC to MIC for Aspergillus niger MTCC 8189; assay type: functional

SMILES | Ratio
CCCCCCCCCCCCCCCC(=O)N/N=C/c1ccc(SC)cc1 | 3
CSc1ccc(/C=N/NC(=O)/C=C/c2ccccc2)cc1 | 3
CSc1ccc(/C=N/NC(=O)c2cccc(C)c2)cc1 | 3
C/C=C/C=C/C(=O)N/N=C/c1cccc(O)c1 | 3
CCCCCCCCCCCC(=O)N/N=C/c1ccc(SC)cc1 | 3
COc1ccc(C(=O)N/N=C/c2cccc(O)c2)cc1OC | 3
CCCCCCCCCCCCCC(=O)N/N=C/c1ccc(SC)cc1 | 3
O=C(/C=C/c1ccccc1)N/N=C/c1cccc(O)c1 | 3
C/C=C/C=C/C(=O)N/N=C/c1ccc(SC)cc1 | 3
CCCCCCCCCCCCCCCCCC(=O)N/N=C/c1cccc(O)c1 | 3

tested on: Candida albicans; assay: Ratio of MFC to MIC for Candida albicans MTCC 227; assay type: functional

SMILES | Ratio
CCCCCCCCCCCCCCCC(=O)N/N=C/c1ccc(SC)cc1 | 3
CSc1ccc(/C=N/NC(=O)/C=C/c2ccccc2)cc1 | 3
CSc1ccc(/C=N/NC(=O)c2cccc(C)c2)cc1 | 3
C/C=C/C=C/C(=O)N/N=C/c1cccc(O)c1 | 3
CCCCCCCCCCCC(=O)N/N=C/c1ccc(SC)cc1 | 3
COc1ccc(C(=O)N/N=C/c2cccc(O)c2)cc1OC | 3
CCCCCCCCCCCCCC(=O)N/N=C/c1ccc(SC)cc1 | 3
O=C(/C=C/c1ccccc1)N/N=C/c1cccc(O)c1 | 3
C/C=C/C=C/C(=O)N/N=C/c1ccc(SC)cc1 | 3
CCCCCCCCCCCCCCCCCC(=O)N/N=C/c1cccc(O)c1 | 3

tested on: Escherichia coli; assay: Ratio of MBC to MIC for Escherichia coli MTCC 1652; assay type: functional

SMILES | Ratio
CCCCCCCCCCCCCCCC(=O)N/N=C/c1ccc(SC)cc1 | 3
CSc1ccc(/C=N/NC(=O)/C=C/c2ccccc2)cc1 | 3
CSc1ccc(/C=N/NC(=O)c2cccc(C)c2)cc1 | 3
C/C=C/C=C/C(=O)N/N=C/c1cccc(O)c1 | 3
CCCCCCCCCCCC(=O)N/N=C/c1ccc(SC)cc1 | 3
COc1ccc(C(=O)N/N=C/c2cccc(O)c2)cc1OC | 3
CCCCCCCCCCCCCC(=O)N/N=C/c1ccc(SC)cc1 | 3
O=C(/C=C/c1ccccc1)N/N=C/c1cccc(O)c1 | 3
C/C=C/C=C/C(=O)N/N=C/c1ccc(SC)cc1 | 3
CCCCCCCCCCCCCCCCCC(=O)N/N=C/c1cccc(O)c1 | 3

tested on: Bacillus subtilis; assay: Ratio of MBC to MIC for Bacillus subtilis MTCC 2063; assay type: functional

SMILES | Ratio
CCCCCCCCCCCCCCCC(=O)N/N=C/c1ccc(SC)cc1 | 3
CSc1ccc(/C=N/NC(=O)/C=C/c2ccccc2)cc1 | 3
CSc1ccc(/C=N/NC(=O)c2cccc(C)c2)cc1 | 3
C/C=C/C=C/C(=O)N/N=C/c1cccc(O)c1 | 3
CCCCCCCCCCCC(=O)N/N=C/c1ccc(SC)cc1 | 3
COc1ccc(C(=O)N/N=C/c2cccc(O)c2)cc1OC | 3
CCCCCCCCCCCCCC(=O)N/N=C/c1ccc(SC)cc1 | 3
O=C(/C=C/c1ccccc1)N/N=C/c1cccc(O)c1 | 3
C/C=C/C=C/C(=O)N/N=C/c1ccc(SC)cc1 | 3
CCCCCCCCCCCCCCCCCC(=O)N/N=C/c1cccc(O)c1 | 3

tested on: Staphylococcus aureus; assay: Ratio of MBC to MIC for Staphylococcus aureus MTCC 2901; assay type: functional

SMILES | Ratio
CCCCCCCCCCCCCCCC(=O)N/N=C/c1ccc(SC)cc1 | 3
CSc1ccc(/C=N/NC(=O)/C=C/c2ccccc2)cc1 | 3
CSc1ccc(/C=N/NC(=O)c2cccc(C)c2)cc1 | 3
C/C=C/C=C/C(=O)N/N=C/c1cccc(O)c1 | 3
CCCCCCCCCCCC(=O)N/N=C/c1ccc(SC)cc1 | 3
COc1ccc(C(=O)N/N=C/c2cccc(O)c2)cc1OC | 3
CCCCCCCCCCCCCC(=O)N/N=C/c1ccc(SC)cc1 | 3
O=C(/C=C/c1ccccc1)N/N=C/c1cccc(O)c1 | 3
C/C=C/C=C/C(=O)N/N=C/c1ccc(SC)cc1 | 3
CCCCCCCCCCCCCCCCCC(=O)N/N=C/c1cccc(O)c1 | 3

tested on: Aspergillus niger; assay: Fungicidal activity against Aspergillus niger MTCC 8189; assay type: functional

SMILES | MFC [µM]
CCCCCCCCCCCCCCCC(=O)N/N=C/c1ccc(SC)cc1 | > 122
CSc1ccc(/C=N/NC(=O)/C=C/c2ccccc2)cc1 | > 168
CSc1ccc(/C=N/NC(=O)c2cccc(C)c2)cc1 | 88 (≈ 25 µg/mL)
C/C=C/C=C/C(=O)N/N=C/c1cccc(O)c1 | 217 (≈ 50 µg/mL)
CCCCCCCCCCCC(=O)N/N=C/c1ccc(SC)cc1 | 71 (≈ 24.7 µg/mL)
COc1ccc(C(=O)N/N=C/c2cccc(O)c2)cc1OC | 41 (≈ 12.3 µg/mL)
CCCCCCCCCCCCCC(=O)N/N=C/c1ccc(SC)cc1 | > 132
O=C(/C=C/c1ccccc1)N/N=C/c1cccc(O)c1 | 93 (≈ 24.8 µg/mL)
C/C=C/C=C/C(=O)N/N=C/c1ccc(SC)cc1 | 96 (≈ 25 µg/mL)
CCCCCCCCCCCCCCCCCC(=O)N/N=C/c1cccc(O)c1 | > 124

tested on: Candida albicans; assay: Fungicidal activity against Candida albicans MTCC 227; assay type: functional

SMILES | MFC [µM]
CCCCCCCCCCCCCCCC(=O)N/N=C/c1ccc(SC)cc1 | > 122
CSc1ccc(/C=N/NC(=O)/C=C/c2ccccc2)cc1 | 84 (≈ 24.9 µg/mL)
CSc1ccc(/C=N/NC(=O)c2cccc(C)c2)cc1 | 176 (≈ 50.1 µg/mL)
C/C=C/C=C/C(=O)N/N=C/c1cccc(O)c1 | 217 (≈ 50 µg/mL)
CCCCCCCCCCCC(=O)N/N=C/c1ccc(SC)cc1 | > 142
COc1ccc(C(=O)N/N=C/c2cccc(O)c2)cc1OC | 83 (≈ 24.9 µg/mL)
CCCCCCCCCCCCCC(=O)N/N=C/c1ccc(SC)cc1 | > 132
O=C(/C=C/c1ccccc1)N/N=C/c1cccc(O)c1 | 93 (≈ 24.8 µg/mL)
C/C=C/C=C/C(=O)N/N=C/c1ccc(SC)cc1 | > 192
CCCCCCCCCCCCCCCCCC(=O)N/N=C/c1cccc(O)c1 | > 124

tested on: Escherichia coli; assay: Bactericidal activity against Escherichia coli MTCC 1652; assay type: functional

SMILES | MBC [µM]
CCCCCCCCCCCCCCCC(=O)N/N=C/c1ccc(SC)cc1 | 61 (≈ 24.7 µg/mL)
CSc1ccc(/C=N/NC(=O)/C=C/c2ccccc2)cc1 | 168 (≈ 49.8 µg/mL)
CSc1ccc(/C=N/NC(=O)c2cccc(C)c2)cc1 | 176 (≈ 50.1 µg/mL)
C/C=C/C=C/C(=O)N/N=C/c1cccc(O)c1 | > 217
CCCCCCCCCCCC(=O)N/N=C/c1ccc(SC)cc1 | > 142
COc1ccc(C(=O)N/N=C/c2cccc(O)c2)cc1OC | > 166
CCCCCCCCCCCCCC(=O)N/N=C/c1ccc(SC)cc1 | > 132
O=C(/C=C/c1ccccc1)N/N=C/c1cccc(O)c1 | 46 (≈ 12.2 µg/mL)
C/C=C/C=C/C(=O)N/N=C/c1ccc(SC)cc1 | > 192
CCCCCCCCCCCCCCCCCC(=O)N/N=C/c1cccc(O)c1 | > 124

tested on: Bacillus subtilis; assay: Bactericidal activity against Bacillus subtilis MTCC 2063; assay type: functional

SMILES | MBC [µM]
CCCCCCCCCCCCCCCC(=O)N/N=C/c1ccc(SC)cc1 | 61 (≈ 24.7 µg/mL)
CSc1ccc(/C=N/NC(=O)/C=C/c2ccccc2)cc1 | > 168
CSc1ccc(/C=N/NC(=O)c2cccc(C)c2)cc1 | > 176
C/C=C/C=C/C(=O)N/N=C/c1cccc(O)c1 | 217 (≈ 50 µg/mL)
CCCCCCCCCCCC(=O)N/N=C/c1ccc(SC)cc1 | > 142
COc1ccc(C(=O)N/N=C/c2cccc(O)c2)cc1OC | > 166
CCCCCCCCCCCCCC(=O)N/N=C/c1ccc(SC)cc1 | 33 (≈ 12.4 µg/mL)
O=C(/C=C/c1ccccc1)N/N=C/c1cccc(O)c1 | 46 (≈ 12.2 µg/mL)
C/C=C/C=C/C(=O)N/N=C/c1ccc(SC)cc1 | > 192
CCCCCCCCCCCCCCCCCC(=O)N/N=C/c1cccc(O)c1 | 124 (≈ 49.9 µg/mL)

tested on: Staphylococcus aureus; assay: Bactericidal activity against Staphylococcus aureus MTCC 2901; assay type: functional

SMILES | MBC [µM]
CCCCCCCCCCCCCCCC(=O)N/N=C/c1ccc(SC)cc1 | > 122
CSc1ccc(/C=N/NC(=O)/C=C/c2ccccc2)cc1 | > 168
CSc1ccc(/C=N/NC(=O)c2cccc(C)c2)cc1 | > 176
C/C=C/C=C/C(=O)N/N=C/c1cccc(O)c1 | > 217
CCCCCCCCCCCC(=O)N/N=C/c1ccc(SC)cc1 | > 142
COc1ccc(C(=O)N/N=C/c2cccc(O)c2)cc1OC | 83 (≈ 24.9 µg/mL)
CCCCCCCCCCCCCC(=O)N/N=C/c1ccc(SC)cc1 | > 132
O=C(/C=C/c1ccccc1)N/N=C/c1cccc(O)c1 | 46 (≈ 12.2 µg/mL)
C/C=C/C=C/C(=O)N/N=C/c1ccc(SC)cc1 | 192 (≈ 50 µg/mL)
CCCCCCCCCCCCCCCCCC(=O)N/N=C/c1cccc(O)c1 | > 124

tested on: Candida albicans; assay: Fungistatic activity against Candida albicans MTCC 227 after 48 hr by tube dilution method; assay type: functional

SMILES | -logMIC
CCCCCCCCCCCCCCCC(=O)N/N=C/c1ccc(SC)cc1 | 0.61
CSc1ccc(/C=N/NC(=O)/C=C/c2ccccc2)cc1 | 1.37
CSc1ccc(/C=N/NC(=O)c2cccc(C)c2)cc1 | 1.67
C/C=C/C=C/C(=O)N/N=C/c1cccc(O)c1 | 1.41
CCCCCCCCCCCC(=O)N/N=C/c1ccc(SC)cc1 | 1.66
COc1ccc(C(=O)N/N=C/c2cccc(O)c2)cc1OC | 1.98
CCCCCCCCCCCCCC(=O)N/N=C/c1ccc(SC)cc1 | 0.58
O=C(/C=C/c1ccccc1)N/N=C/c1cccc(O)c1 | 1.93
C/C=C/C=C/C(=O)N/N=C/c1ccc(SC)cc1 | 1.32
CCCCCCCCCCCCCCCCCC(=O)N/N=C/c1cccc(O)c1 | 0.6

tested on: Aspergillus niger; assay: Fungistatic activity against Aspergillus niger MTCC 8189 after 7 days by tube dilution method; assay type: functional

SMILES | -logMIC
CCCCCCCCCCCCCCCC(=O)N/N=C/c1ccc(SC)cc1 | 0.61
CSc1ccc(/C=N/NC(=O)/C=C/c2ccccc2)cc1 | 1.37
CSc1ccc(/C=N/NC(=O)c2cccc(C)c2)cc1 | 1.7
C/C=C/C=C/C(=O)N/N=C/c1cccc(O)c1 | 1.27
CCCCCCCCCCCC(=O)N/N=C/c1ccc(SC)cc1 | 1.25
COc1ccc(C(=O)N/N=C/c2cccc(O)c2)cc1OC | 1.98
CCCCCCCCCCCCCC(=O)N/N=C/c1ccc(SC)cc1 | 1.7
O=C(/C=C/c1ccccc1)N/N=C/c1cccc(O)c1 | 1.93
C/C=C/C=C/C(=O)N/N=C/c1ccc(SC)cc1 | 1.32
CCCCCCCCCCCCCCCCCC(=O)N/N=C/c1cccc(O)c1 | 1.51

tested on: Escherichia coli; assay: Bacteriostatic activity against Escherichia coli MTCC 1652 after 24 hr by tube dilution method; assay type: functional

SMILES | -logMIC
CCCCCCCCCCCCCCCC(=O)N/N=C/c1ccc(SC)cc1 | 1.81
CSc1ccc(/C=N/NC(=O)/C=C/c2ccccc2)cc1 | 1.68
CSc1ccc(/C=N/NC(=O)c2cccc(C)c2)cc1 | 1.66
C/C=C/C=C/C(=O)N/N=C/c1cccc(O)c1 | 1.27
CCCCCCCCCCCC(=O)N/N=C/c1ccc(SC)cc1 | 1.3
COc1ccc(C(=O)N/N=C/c2cccc(O)c2)cc1OC | 1.38
CCCCCCCCCCCCCC(=O)N/N=C/c1ccc(SC)cc1 | 1.48
O=C(/C=C/c1ccccc1)N/N=C/c1cccc(O)c1 | 1.32
C/C=C/C=C/C(=O)N/N=C/c1ccc(SC)cc1 | 1.32
CCCCCCCCCCCCCCCCCC(=O)N/N=C/c1cccc(O)c1 | 1.3

tested on: Staphylococcus aureus; assay: Bacteriostatic activity against Staphylococcus aureus MTCC 2901 after 24 hr by tube dilution method; assay type: functional

SMILES | -logMIC
CCCCCCCCCCCCCCCC(=O)N/N=C/c1ccc(SC)cc1 | 1.21
CSc1ccc(/C=N/NC(=O)/C=C/c2ccccc2)cc1 | 1.68
CSc1ccc(/C=N/NC(=O)c2cccc(C)c2)cc1 | 1.55
C/C=C/C=C/C(=O)N/N=C/c1cccc(O)c1 | 0.96
CCCCCCCCCCCC(=O)N/N=C/c1ccc(SC)cc1 | 1.3
COc1ccc(C(=O)N/N=C/c2cccc(O)c2)cc1OC | 1.98
CCCCCCCCCCCCCC(=O)N/N=C/c1ccc(SC)cc1 | 0.58
O=C(/C=C/c1ccccc1)N/N=C/c1cccc(O)c1 | 1.7
C/C=C/C=C/C(=O)N/N=C/c1ccc(SC)cc1 | 1.02
CCCCCCCCCCCCCCCCCC(=O)N/N=C/c1cccc(O)c1 | 1.1

tested on: Bacillus subtilis; assay: Bacteriostatic activity against Bacillus subtilis MTCC 2063 after 24 hr by tube dilution method; assay type: functional

SMILES | -logMIC
CCCCCCCCCCCCCCCC(=O)N/N=C/c1ccc(SC)cc1 | 2.11
CSc1ccc(/C=N/NC(=O)/C=C/c2ccccc2)cc1 | 1.68
CSc1ccc(/C=N/NC(=O)c2cccc(C)c2)cc1 | 1.06
C/C=C/C=C/C(=O)N/N=C/c1cccc(O)c1 | 1.27
CCCCCCCCCCCC(=O)N/N=C/c1ccc(SC)cc1 | 1.45
COc1ccc(C(=O)N/N=C/c2cccc(O)c2)cc1OC | 1.38
CCCCCCCCCCCCCC(=O)N/N=C/c1ccc(SC)cc1 | 2.08
O=C(/C=C/c1ccccc1)N/N=C/c1cccc(O)c1 | 1.93
C/C=C/C=C/C(=O)N/N=C/c1ccc(SC)cc1 | 0.72
CCCCCCCCCCCCCCCCCC(=O)N/N=C/c1cccc(O)c1 | 1.51
